Results: patent publication US20240301090A1, “COMPOSITIONS AND METHODS FOR TREATING A MEDICAL CONDITION” (priority 2021, published 2024)

Experiments:
LβT2 cells = assay: DNA delivery into LβT2 cells (qPCR of GFP transcript); type: cell-based; conditions: CPP packaged with DNA construct
Method: FIG. 8A is a schematic representation of a MDP containing protamine as a cell penetrating peptide (CPP), a NLS sequence and C-terminal cysteine cross-linked to GnRHLys6. […] Results are shown as mean±SEM, n=3. […] In FIG. 8E, LβT2 cells were treated with the MDP at two concentrations (200 ng DNA+300 ng MDP or 1 μg DNA+1.5 μg MDP), or 200 ng DNA was transfected using Polyjet reagent (positive control). Following 72 hours, RNA was extracted, purified and treated with DNAse, and qPCR performed using primers targeting the adaptor and GFP, and then by nested PCR targeting just the GFP. Results are shown as mean±SEM, n=3.
(§1) FIG. 9A is a schematic representation of the CPP (NF51) cross-linked to GnRH using this approach and then packaged with the DNA. In FIG. 9B, LβT2 or MEF cells were treated with the NF51-DNA alone, or after its crosslinking to GnRH Lys6. PCR was carried out as in FIG. 8E. Also shown are mRNA levels in samples that lacked the reverse transcriptase (RT).
The delivery delivery proteins—the minimal delivery protein (MDP) chimeric protein (protamine and NLS, SEQ ID NO: 89) was synthesized by GL Biochem. It was crosslinked to GnRH Lys6 analog (SEQ ID NO: 9, Sigma), via the Lys^6 of the GnRH and the C-terminal Cys of the above protein using sulfo-GMBS. The crosslinked protein was dialyzed against PBS. […]

MEF cells = assay: DNA delivery into MEF cells (qPCR of GFP transcript); type: cell-based; conditions: CPP packaged with DNA construct
Method: as §1
The delivery delivery proteins—the minimal delivery protein (MDP) chimeric protein (protamine and NLS, SEQ ID NO: 89) was synthesized by GL Biochem. It was crosslinked to GnRH Lys6 analog (SEQ ID NO: 9, Sigma), via the Lys^6 of the GnRH and the C-terminal Cys of the above protein using sulfo-GMBS. The crosslinked protein was dialyzed against PBS. NF51 ([stearyl-AGYLLG]-delta-[…], SEQ ID NO: 103 conjugated through Gly6 to the δ-NH2 group of ornithine 1 of SEQ ID NO: 100) was purchased commercially (Icosagen) and cross-linked to GnRH Lys6 using Traut reagent (Pierce) followed by sulfo-GMBS (Thermo Fisher). Peptide 1 comprises the same CPP sequence as NF51 with a terminal cysteine (stearyl-AGYLLG)-delta-[…]-NH2, SEQ ID NO: 103 conjugated through Gly6 to the δ-NH2 group of ornithine 1 of SEQ ID NO: 101) for direct cross-linking, and Peptide 2 contains also the PACE cleavage (stearyl-AGYLLG)-delta-[…]-NH2, SQ ID NO: 103 conjugated through Gly6 to the δ-NH2 group of ornithine 1 of SEQ ID NO: 102). […]

[1] = system: T1, Boc-Arg-Val-Arg-Arg-MCA reporter peptide substrate
T1 sequence: RVRR

αT3-1 gonadotrope cells = assay: mCherry DNA delivery in mixed culture, FACS: αT3-1 gonadotrope cells; type: cell-based, murine; conditions: for delivery of DNA into the cells: GnRH-crosslinked peptides; for αT3-1 gonadotrope cells expressing mCherry: mixed 1:10 with MEFs, 1.5 hours incubation, FACS after 48 hours
Method: (§2) Following 48 hours, cell were sorted by FACS to determine the numbers of cells expressing each fluorescent protein in a quantitative manner. The mCherry expression was detected in 58% of the αT3-1 gonadotrope cells, and in 3% of the MEFs.
(§3) Transfection with delivery peptides—Mixed cell cultures, in which the gonadotropes comprise ˜10% of the cells, as in the pituitary gland, were transferred to media without FCS or antibiotics and pre-incubated for 1.5 hours prior to transfection. The DNA: peptide mix (ratio 1:5; for every 1 μg DNA [mCherry or KRAB-Sf1], 5 μg peptide was used) was incubated for 5 minutes and then added to the cells. Following 1.5 hours the media was removed and replaced with fresh complete media. Cells were collected 24-48 hours later for counting by FACS to determine specificity and efficacy of the delivery, or after 2 weeks for gene expression analysis by qPCR. Further optimization in the mixed cell cultures utilized GnRH-crosslinked Peptide2 mixed 1:10 with non-crosslinked Peptide 2 to attain maximal efficiency and targeting specificity.
(§4) To test whether the newly designed GnRH-carrier might deliver DNA specifically to GnRH receptor-expressing cells, it was first applied to αT3-1 gonadotrope cells and Egr1 mRNA levels measured as a readout for GnRHR binding. […] Following, cells were sorted and counted by FACS to determine the number of cells expressing the delivered DNA in an unbiased manner. After optimization, the number of gonadotrope cells that were transfected reached around 58%, while only 3% of MEF cells expressed the mCherry (FIG. 12B). Assuming 80% of the αT3-1 indeed express the GnRH receptor, the targeting was successful in 72.5% of the GnRH receptor-expressing cells.

GnRH receptor (GnRHR) = target: T2, GnRH receptor (GnRHR) (Mus musculus, UniProt Q01776); assay: Egr1 mRNA induction as readout of GnRHR binding in αT3-1 cells; type: cell-based, murine; set-up: endogenous in cells; host or cells: αT3-1 gonadotrope cell line; conditions: αT3-1 gonadotrope cells
T2 sequence (Q01776 1-327): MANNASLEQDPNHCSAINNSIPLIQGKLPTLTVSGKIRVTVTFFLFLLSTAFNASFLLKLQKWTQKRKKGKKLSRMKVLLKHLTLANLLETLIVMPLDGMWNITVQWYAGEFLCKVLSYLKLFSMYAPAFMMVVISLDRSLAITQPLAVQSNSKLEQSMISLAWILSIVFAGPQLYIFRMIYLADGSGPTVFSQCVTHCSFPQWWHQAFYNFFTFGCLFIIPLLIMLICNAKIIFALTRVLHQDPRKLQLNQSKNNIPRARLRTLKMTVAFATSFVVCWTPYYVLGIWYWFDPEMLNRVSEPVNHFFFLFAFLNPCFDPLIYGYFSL
Method: as §2
RT-PCR—Real-time quantitative PCR was performed following RNA extraction (Trizol, Invitrogen followed by Zymo RNA purification kit+DNase) and reverse transcriptase (qScript cDNA synthesis kit, Quanta) using polymerase (2×qPCRBIO Fast qPCR SyGreen Blue Mix, Hi-ROX, PCR Biosystems) and the primers shown in Table 2 hereinbelow. Values were calculated using DNA standard curves and normalized to levels of Rplp0.
as §4

MEFs = assay: mCherry DNA delivery in mixed culture, FACS: MEFs; type: cell-based; conditions: mixed culture with αT3-1, 1.5 hours incubation, FACS after 48 hours
Method: as §2
as §3, with “Further optimization in the mixed cell cultures utilized GnRH-crosslinked Peptide2 mixed 1:10 with non-crosslinked Peptide 2 to attain maximal efficiency and targeting specificity.” left out
To test whether the newly designed GnRH-carrier might deliver DNA specifically to GnRH receptor-expressing cells, it was first applied to αT3-1 gonadotrope cells and Egr1 mRNA levels measured as a readout for GnRHR binding. […] Following, cells were sorted and counted by FACS to determine the number of cells expressing the delivered DNA in an unbiased manner. […]

[2] = target: T3, Boc-Arg-Val-Arg-Arg-MCA reporter peptide substrate
T3 chain: RVRR

[stearyl-AGYLLG]-delta-OINLKALAALAKKIL [NF51, reference compound]
transfection of LβT2 gonadotrope cells (LβT2 cells): highly efficient
transfection of MEF cells (MEF cells): highly efficient

PACE4 secreted by LβT2 gonadotrope cells (in conditioned medium)
fluorescence on cleavage of the substrate (380 nm ex/460 nm em) [1]: cutting the reporter and emitting fluorescence at a much higher level than seen in the incubation media of MEF cells

(stearyl-AGYLLG)-delta-OINLKALAALAKKILC-NH2 [Peptide 1]
delivery of DNA into the cells (αT3-1 gonadotrope cells): could deliver some DNA into the cells
Egr1 mRNA activation (GnRHR binding) (GnRH receptor (GnRHR)): also activated the receptor

(stearyl-AGYLLG)-delta-OINLKALAALAKKILRVRRC-NH2 [GnRH Lys6-Peptide 2]
delivery of DNA into the cells (αT3-1 gonadotrope cells): could deliver some DNA into the cells
successful targeting of GnRH receptor-expressing cells (αT3-1 gonadotrope cells; assuming 80% of the αT3-1 express the GnRH receptor): 72.5%
specificity of DNA delivery to gonadotropes (αT3-1 gonadotrope cells; compared with peptide without PACE4 cleavage site): much more specific to gonadotropes
αT3-1 gonadotrope cells expressing mCherry (αT3-1 gonadotrope cells): 58%
αT3-1 gonadotrope cells expressing mCherry (αT3-1 gonadotrope cells; listed as Peptide 2): around 58%
MEFs expressing mCherry (MEFs): 3%
Egr1 mRNA activation (GnRHR binding) (GnRH receptor (GnRHR)): activated Egr1 mRNA

B1: PACE4 secreted by PANC-1 pancreatic cells (in conditioned medium) (protein)
chain: QVRSDPQALYFNDPIWSNMWYLHCGDKNSRCRSEMNVQAAWKRGYTGKNVVVTILDDGIERNHPDLAPNYDSYASYDVNGNDYDPSPRYDASNENKHGTRCAGEVAASANNSYCIVGIAYNAKIGGIRMLDGDVTDVVEAKSLGIRPNYIDIYSASWGPDDDGKTVDGPGRLAKQAFEYGIKKGRQGLGSIFVWASGNGGREGDYCSCDGYTNSIYTISVSSATENGYKPWYLEECASTLATTYSSGAFYERKIVTTDLRQRCTDGHTGTSVSAPMVAGIIALALEANSQLTWRDVQHLLVKTSRPAHLKASDWKVNGAGHKVSHFYGFGLVDAEALVVEAKKWTAVPSQHMCVAASDKRPRSIPLVQVLRTTALTSACAEHSDQRVVYLEHVVVRTSISHPRRGDLQIYLVSPSGTKSQLLAKRLLDLSNEGFTNWEFMTVHCWGEKAEGQWTLEIQDLPSQVRNPEKQGKLKEWSLILYGTAEHPYHTFSAHQSRSRMLELSAPELEPPKAALSPSQVEVPEDEEDYTAQSTPGSANILQTSVCHPECGDKGCDGPNADQCLNCVHFSLGSVKTSRKCVSVCPLGYFGDTAARRCRRCHKGCETCSSRAATQCLSCRRGFYHHQEMNTCVTLCPAGFYADESQKNCLKCHPSCKKCVDEPEKCTVCKEGFSLARGSCIPDCEPGTYFDSELIRCGECHHTCGTCVGPGREECIHCAKNFHFHDWKCVPACGEGFYPEEMPGLPHKVCRRCDENCLSCAGSSRNCSRCKTGFTQLGTSCITNHTCSNADETFCEMVKSNRLCERKLFIQFCCRTCLLAG
fluorescence on cleavage of the substrate [2]: cutting the reporter and emitting fluorescence at a much higher levels than the HEK cells
